Laboratory results from patent publication US20250302961A1, “TARGETING MYELOID-DERIVED SUPPRESSOR CELLS (MDSCS) IN BLADDER CANCER TO ENHANCE EFFICACY OF ADOPTIVE CELL THERAPY (ACT)” (H. LEE MOFFITT CANCER CENTER AND RESEARCH INSTITUTE, INC., priority 2022, published 2025).

Test system: MB49-OVA bladder tumors
Experiment: Gemcitabine pretreatment and ACT with OT-I T-cells in orthotopic MB49-OVA bladder cancer model, tumor growth by ultrasound
Type: in vivo, C57BL/6 mice
Conditions: intravesical 500 ug gemcitabine for 30 minutes, then 5×10^6 OT-I T-cells at day 4 (GEM+OT-I)
Method: For murine studies, orthotopic MB49-OVA bladder tumors were collected, stained for MDSCs, and analyzed by flow cytometry. Urine samples from bladder cancer patients were also collected and stained for MDSCs. From mice, purified MDSCs and OT-I T-cells were cocultured and from bladder cancer patients, purified urine MDSCs and CD3-stimulated peripheral blood T-cells were cocultured to assess suppression of T-cell proliferation or IFN-gamma secretion. Mice bearing MB49-OVA tumors were treated with intravesical instillation of gemcitabine and/or OT-I T-cells and tumor growth was monitored via ultrasound. C57BL/6 female mice were initially anesthetized and catheterized (Terumo), then pre-treated orthotopically with Poly-L-Lysine in PBS (50 uL at 1μg/mL) for 10 minutes. Then bladders were washed with 50 uL PBS and mice received intravesical instillation of 1×10^5 MB49-OVA murine bladder cancer cells for 30 minutes. Presence of bladder tumors were confirmed via the Vevo 2100 ultrasound system (FUJIFILM VisualSonics Inc.) 10 days after tumor inoculation and ultrasound was performed 1X per week until mice were euthanized. To evaluate whether targeting MDSCs with gemcitabine (GEM) improves transfer of T cells, C57BL/6 mice received intravesical instillation of MB49-OVA tumor cells and were monitored via ultrasound. Seven-ten days after intravesical instillation of tumor, mice were separated into three treatment groups and an untreated (UNTX) group. The gemcitabine group (GEM) and the combination gemcitabine and OT-I treatment group (GEM+OT-I) received intravesical instillation of 500 ug gemcitabine for 30 minutes. The OT-I treatment group (OT-I) and GEM+OT-I treatment groups received intravesical instillation of 5×10^6 OT-I T-cells for 3 hours at day 4 after instillation of Gem. Tumor growth was measured via ultrasound.

## Nc1ccn([C@@H]2O[C@H](CO)[C@@H](O)C2(F)F)c(=O)n1 [gemcitabine]
Mice bearing large MB49-OVA tumors (>50 mm3)
  anti-tumor response (tumor growth via ultrasound): improved anti-tumor response
Mice bearing large MB49-OVA tumors (>50 mm3), listed as Gemcitabine
  anti-tumor response (tumor growth via ultrasound): improves adoptive cell therapy (ACT)
Mice bearing smaller MB49-OVA tumors (<50 mm3)
  anti-tumor response (tumor growth via ultrasound): little added benefit to ACT
